Reference: patent US10035804B2, “Spirodiamine derivatives as aldosterone synthase inhibitors” (Hoffmann-La Roche Inc., priority 2014, dated 2018)

What was measured:
human CYP11B2 = human CYP11B2 (Homo sapiens (Human), UniProt P19099); assay: G-402 cellular enzyme assay, human CYP11B2 (aldosterone release); format: cell-based; details: G-402 cells expressing human CYP11B2; 1 μM Deoxycorticosterone; aldosterone in supernatant after 16 h
Excerpt: (§1) Herein we identified the use of the G-402 cell line as a host cell to ectopically express (transiently or stably) enzymes of the CYP11 family. Specifically we developed stable G-402 cells expressing ectopically human CYP11B1, human CYP11B2, human CYP11A1, cynmolgus CYP11B1 or cynomolgus CYP11B2 enzyme activity. Importantly the identified cell line G-402 expresses co-factors (adrenodoxin and adrenodoxin reductase) important for the activity of the CYP11 family and no relevant enzyme activity of the CYP11 family (in comparison to H295R cells) was detected in these cells. Therefore the G-402 cell line is uniquely suited as a host cell for the ectopic expression of enzymes from the CYP11 family.
(§2) G-402 cells can be obtained from ATCC (CRL-1440) and were originally derived from a renal leiomyoblastoma.
(§3) The expression plasmids contains the ORF for either human/cyno CYP11B1 or CYP11B2 under the control of a suitable promoter (CMV-promoter) and a suitable resistance marker (neomycin). Using standard techniques the expression plasmid is transfected into G-402 cells and these cells are then selected for expressing the given resistance markers. Individual cell-clones are then selected and assessed for displaying the desired enzymatic activity using 11-Deoxycorticosterone (Cyp11B2) or 11-Deoxycortisol (Cyp11B1) as a substrate.
(§4) G-402 cells expressing CYP11 constructs were established as described above and maintained in McCoy's 5a Medium Modified, ATCC Catalog No. 30-2007 containing 10% FCS and 400 μg/ml G418 (Geneticin) at 37° C. under an atmosphere of 5% CO2/95% air. Cellular enzyme assays were performed in DMEM/F12 medium containing 2.5% charcoal treated FCS and appropriate concentration of substrate (0.3-10 uM 11-Deoxycorticosterone, 11-Deoxycortisol or Corticosterone). For assaying enzymatic activity, cells were plated onto 96 well plates and incubated for 16 h. An aliquot of the supernatant is then transferred and analyzed for the concentration of the expected product (Aldosterone for CYP11B2; Cortisol for CYP11B1). The concentrations of these steroids can be determined using HTRF assays from CisBio analyzing either Aldosterone or Cortisol.
(§5) Inhibition of the release of produced steroids can be used as a measure of the respective enzyme inhibition by test compounds added during the cellular enzyme assay. The dose dependent inhibition of enzymatic activity by a compound is calculated by means of plotting added inhibitor concentrations (x-axes) vs. measured steroid/product level (y-axes). The inhibition is then calculated by fitting the following 4-parameter sigmoidal function (Morgan-Mercer-Flodin (MMF) model) to the raw data points using the least squares method:
(§6) [formula] wherein, A is the maximum y value, B is the EC50 factor determined using XLFit, C is the minimum y value and D is the slope value.
(§7) EC50 values for compounds claimed herein were tested with the G402-based assay system described. Cyp11B2 enzyme activity was tested in presence of 1 μM Deoxycorticosterone and variable amounts of inhibitors; Cyp11B1 enzyme activity was tested in presence of 1 μM Deoxycortisol and variable amounts of inhibitors.

human CYP11B1 = human CYP11B1 (Homo sapiens (Human), UniProt P15538); assay: G-402 cellular enzyme assay, human CYP11B1 (cortisol release); format: cell-based; details: G-402 cells expressing human CYP11B1; 1 μM Deoxycortisol; cortisol in supernatant after 16 h
Excerpt: as §1, §2, §3, §4, §5, §6, §7

Chain of human CYP11B1 (P15538 25-503): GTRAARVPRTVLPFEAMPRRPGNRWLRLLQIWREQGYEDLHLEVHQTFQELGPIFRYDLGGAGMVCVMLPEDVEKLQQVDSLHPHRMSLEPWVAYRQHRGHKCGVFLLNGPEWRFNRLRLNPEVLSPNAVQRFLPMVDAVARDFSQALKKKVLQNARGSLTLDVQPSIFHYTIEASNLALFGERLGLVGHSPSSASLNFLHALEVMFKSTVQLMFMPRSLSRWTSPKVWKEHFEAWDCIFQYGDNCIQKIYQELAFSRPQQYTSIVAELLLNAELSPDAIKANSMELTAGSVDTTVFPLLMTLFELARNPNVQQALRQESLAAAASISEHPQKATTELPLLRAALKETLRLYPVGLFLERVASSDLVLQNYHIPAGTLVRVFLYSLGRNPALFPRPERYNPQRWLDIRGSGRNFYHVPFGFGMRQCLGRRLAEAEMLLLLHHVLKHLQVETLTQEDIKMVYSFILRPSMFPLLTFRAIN
Chain of human CYP11B2 (P19099 25-503): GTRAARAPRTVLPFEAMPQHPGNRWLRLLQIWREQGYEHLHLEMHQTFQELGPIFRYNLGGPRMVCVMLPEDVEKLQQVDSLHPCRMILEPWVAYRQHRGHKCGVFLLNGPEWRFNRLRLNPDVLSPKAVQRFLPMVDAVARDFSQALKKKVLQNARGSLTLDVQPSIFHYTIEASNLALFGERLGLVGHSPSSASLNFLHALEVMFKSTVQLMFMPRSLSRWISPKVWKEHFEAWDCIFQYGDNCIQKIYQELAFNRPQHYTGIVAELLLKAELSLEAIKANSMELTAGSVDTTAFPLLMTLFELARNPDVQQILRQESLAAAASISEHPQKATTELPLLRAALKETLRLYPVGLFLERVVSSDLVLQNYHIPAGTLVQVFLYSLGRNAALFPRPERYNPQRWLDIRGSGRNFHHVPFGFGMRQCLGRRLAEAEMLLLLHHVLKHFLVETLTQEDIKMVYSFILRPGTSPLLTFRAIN

SMILES: Cn1cc(C(=O)N2CC3(C2)CN(c2cncc(N4C(=O)c5ccc(Cl)cc5C45CC5)c2)C3)cn1 [Example 19, 5′-Chloro-2′-[5-[2-(1-methylpyrazole-4-carbonyl)-2,6-diazaspiro[3.3]heptan-6-yl]-3-pyridyl]spiro[cyclopropane-1,3′-isoindoline]-1′-one]
- EC50 (human CYP11B2): 0.0029 nM
- EC50 (human CYP11B1): 7.69 nM

SMILES: Cc1ccncc1C(=O)N1CC2(C1)CN(c1cncc(N3C(=O)c4ccc(Cl)cc4C34CC4)c1)C2 [Example 20, 5′-Chloro-2′-[5-[2-(4-methylpyridine-3-carbonyl)-2,6-diazaspiro[3.3]heptan-6-yl]-3-pyridyl]spiro[cyclopropane-1,3′-isoindoline]-1′-one]
- EC50 (human CYP11B2): 0.0195 nM
- EC50 (human CYP11B1): 20 nM

SMILES: Cn1nccc1C(=O)N1CC2(C1)CN(c1cncc(N3C(=O)c4ccc(Cl)cc4C34CC4)c1)C2 [Example 21, 5′-Chloro-2′-[5-[2-(2-methylpyrazole-3-carbonyl)-2,6-diazaspiro[3.3]heptan-6-yl]-3-pyridyl]spiro[cyclopropane-1,3′-isoindoline]-1′-one]
- EC50 (human CYP11B2): 0.293 nM
- EC50 (human CYP11B1): > 30 nM

SMILES: COc1ccncc1C(=O)N1CC2(C1)CN(c1cncc(N3C(=O)c4ccc(Cl)cc4C3(C)C)c1)C2 [Example 24, 5-Chloro-2-[5-[2-(4-methoxypyridine-3-carbonyl)-2,6-diazaspiro[3.3]heptan-6-yl]-3-pyridyl]-3,3-dimethyl-isoindolin-1-one]
- EC50 (human CYP11B2): 0.0449 nM
- EC50 (human CYP11B1): 17.2 nM

SMILES: Cc1c(C(=O)N2CC3(C2)CN(c2cncc(N4C(=O)c5ccc(Cl)cc5C4(C)C)c2)C3)cnn1C [Example 26, 5-Chloro-2-[5-[2-(1,5-dimethylpyrazole-4-carbonyl)-2,6-diazaspiro[3.3]heptan-6-yl]-3-pyridyl]-3,3-dimethyl-isoindolin-1-one]
- EC50 (human CYP11B2): 0.0775 nM
- EC50 (human CYP11B1): 35.5 nM

SMILES: Cc1nocc1C(=O)N1CC2(C1)CN(c1cncc(N3C(=O)c4ccc(Cl)cc4C3(C)C)c1)C2 [Example 27, 5-Chloro-3,3-dimethyl-2-[5-[2-(3-methylisoxazole-4-carbonyl)-2,6-diazaspiro[3.3]heptan-6-yl]-3-pyridyl]isoindolin-1-one]
- EC50 (human CYP11B2): 0.104 nM
- EC50 (human CYP11B1): 14 nM

SMILES: Cc1cncc(C(=O)N2CC3(C2)CN(c2cncc(N4C(=O)c5ccc(Cl)cc5C4(C)C)c2)C3)n1 [Example 28, 5-Chloro-3,3-dimethyl-2-[5-[2-(6-methylpyrazine-2-carbonyl)-2,6-diazaspiro[3.3]heptan-6-yl]-3-pyridyl]isoindolin-1-one]
- EC50 (human CYP11B2): 0.0577 nM
- EC50 (human CYP11B1): 0.64 nM

SMILES: Cc1ncncc1C(=O)N1CC2(C1)CN(c1cncc(N3C(=O)c4ccc(Cl)cc4C3(C)C)c1)C2 [Example 29, 5-Chloro-3,3-dimethyl-2-[5-[2-(4-methylpyrimidine-5-carbonyl)-2,6-diazaspiro[3.3]heptan-6-yl]-3-pyridyl]isoindolin-1-one]
- EC50 (human CYP11B2): 0.0748 nM
- EC50 (human CYP11B1): > 30 nM

SMILES: Cc1cnc(C(=O)N2CC3(C2)CN(c2cncc(N4C(=O)c5ccc(Cl)cc5C4(C)C)c2)C3)cn1 [Example 30, 5-Chloro-3,3-dimethyl-2-[5-[2-(5-methylpyrazine-2-carbonyl)-2,6-diazaspiro[3.3]heptan-6-yl]-3-pyridyl]isoindolin-1-one]
- EC50 (human CYP11B2): 0.0456 nM
- EC50 (human CYP11B1): 3.75 nM

SMILES: Cc1cc(C(=O)N2CC3(C2)CN(c2cncc(N4C(=O)c5ccc(Cl)cc5C4(C)C)c2)C3)n(C)n1 [Example 31, 5-Chloro-2-[5-[2-(2,5-dimethylpyrazole-3-carbonyl)-2,6-diazaspiro[3.3]heptan-6-yl]-3-pyridyl]-3,3-dimethyl-isoindolin-1-one]
- EC50 (human CYP11B2): 0.154 nM
- EC50 (human CYP11B1): 6.43 nM

SMILES: Cc1ocnc1C(=O)N1CC2(C1)CN(c1cncc(N3C(=O)c4ccc(Cl)cc4C3(C)C)c1)C2 [Example 32, 5-Chloro-3,3-dimethyl-2-[5-[2-(5-methyloxazole-4-carbonyl)-2,6-diazaspiro[3.3]heptan-6-yl]-3-pyridyl]isoindolin-1-one]
- EC50 (human CYP11B2): 0.0149 nM
- EC50 (human CYP11B1): 5.37 nM

SMILES: CC1(C)c2cc(Cl)ccc2C(=O)N1c1cncc(N2CC3(CN(C(=O)c4ncccn4)C3)C2)c1 [Example 33, 5-Chloro-3,3-dimethyl-2-[5-[2-(pyrimidine-2-carbonyl)-2,6-diazaspiro[3.3]heptan-6-yl]-3-pyridyl]isoindolin-1-one]
- EC50 (human CYP11B2): 0.0497 nM
- EC50 (human CYP11B1): 1.75 nM

SMILES: Cc1cnc(C(=O)N2CC3(C2)CN(c2cncc(N4C(=O)c5ccc(Cl)cc5C4(C)C)c2)C3)nc1 [Example 34, 5-Chloro-3,3-dimethyl-2-[5-[2-(5-methylpyrimidine-2-carbonyl)-2,6-diazaspiro[3.3]heptan-6-yl]-3-pyridyl]isoindolin-1-one]
- EC50 (human CYP11B2): 0.097 nM
- EC50 (human CYP11B1): 9.55 nM

SMILES: Cn1cc(C(=O)N2CC3(C2)CN(c2cncc(N4C(=O)c5ccc(Cl)cc5C4(C)C)c2)C3)c(C(F)F)n1 [Example 35, 5-Chloro-2-[5-[2-[3-(difluoromethyl)-1-methyl-pyrazole-4-carbonyl]-2,6-diazaspiro[3.3]heptan-6-yl]-3-pyridyl]-3,3-dimethyl-isoindolin-1-one]
- EC50 (human CYP11B2): 0.333 nM
- EC50 (human CYP11B1): 29.5 nM

SMILES: CC1(C)c2cc(Cl)ccc2C(=O)N1c1cncc(N2CC3(CN(C(=O)c4cncc(C#N)c4)C3)C2)c1 [Example 36, 5-[6-[5-(6-Chloro-1,1-dimethyl-3-oxo-isoindolin-2-yl)-3-pyridyl]-2,6-diazaspiro[3.3]heptane-2-carbonyl]pyridine-3-carbonitrile]
- EC50 (human CYP11B2): 0.0457 nM
- EC50 (human CYP11B1): 31 nM

SMILES: COc1nccnc1C(=O)N1CC2(C1)CN(c1cncc(N3C(=O)c4ccc(Cl)cc4C3(C)C)c1)C2 [Example 37, 5-Chloro-2-[5-[2-(3-methoxypyrazine-2-carbonyl)-2,6-diazaspiro[3.3]heptan-6-yl]-3-pyridyl]-3,3-dimethyl-isoindolin-1-one]
- EC50 (human CYP11B2): 0.0754 nM
- EC50 (human CYP11B1): 16.1 nM

SMILES: CC1(C)c2cc(Cl)ccc2C(=O)N1c1cncc(N2CC3(CN(C(=O)c4cnccn4)C3)C2)c1 [Example 38, 5-Chloro-3,3-dimethyl-2-[5-[2-(pyrazine-2-carbonyl)-2,6-diazaspiro[3.3]heptan-6-yl]-3-pyridyl]isoindolin-1-one]
- EC50 (human CYP11B2): 0.0268 nM
- EC50 (human CYP11B1): 2.32 nM

SMILES: Cc1oncc1C(=O)N1CC2(C1)CN(c1cncc(N3C(=O)c4ccc(Cl)cc4C3(C)C)c1)C2 [Example 39, 5-Chloro-3,3-dimethyl-2-[5-[2-(5-methylisoxazole-4-carbonyl)-2,6-diazaspiro[3.3]heptan-6-yl]-3-pyridyl]isoindolin-1-one]
- EC50 (human CYP11B2): 0.0282 nM
- EC50 (human CYP11B1): 9.68 nM

SMILES: CC1(C)c2cc(Cl)ccc2C(=O)N1c1cncc(N2CC3(CN(C(=O)c4cncnc4)C3)C2)c1 [Example 40, 5-Chloro-3,3-dimethyl-2-[5-[2-(pyrimidine-5-carbonyl)-2,6-diazaspiro[3.3]heptan-6-yl]-3-pyridyl]isoindolin-1-one]
- EC50 (human CYP11B2): 0.0542 nM
- EC50 (human CYP11B1): 12 nM

SMILES: Cc1ncoc1C(=O)N1CC2(C1)CN(c1cncc(N3C(=O)c4ccc(Cl)cc4C3(C)C)c1)C2 [Example 41, 5-Chloro-3,3-dimethyl-2-[5-[2-(4-methyloxazole-5-carbonyl)-2,6-diazaspiro[3.3]heptan-6-yl]-3-pyridyl]isoindolin-1-one]
- EC50 (human CYP11B2): 0.109 nM
- EC50 (human CYP11B1): 28.4 nM

SMILES: CC1(C)c2cc(Cl)ccc2C(=O)N1c1cncc(N2CC3(CN(C(=O)c4cocn4)C3)C2)c1 [Example 42, 5-Chloro-3,3-dimethyl-2-[5-[2-(oxazole-4-carbonyl)-2,6-diazaspiro[3.3]heptan-6-yl]-3-pyridyl]isoindolin-1-one]
- EC50 (human CYP11B2): 0.0102 nM
- EC50 (human CYP11B1): 1.05 nM

SMILES: Cc1ncc(C(=O)N2CC3(C2)CN(c2cncc(N4C(=O)c5ccc(Cl)cc5C4(C)C)c2)C3)o1 [Example 43, 5-Chloro-3,3-dimethyl-2-[5-[2-(2-methyloxazole-5-carbonyl)-2,6-diazaspiro[3.3]heptan-6-yl]-3-pyridyl]isoindolin-1-one]
- EC50 (human CYP11B2): 0.018 nM
- EC50 (human CYP11B1): 18 nM

SMILES: Cc1nc(C)c(C(=O)N2CC3(C2)CN(c2cncc(N4C(=O)c5ccc(Cl)cc5C4(C)C)c2)C3)o1 [Example 44, 5-Chloro-2-[5-[2-(2,4-dimethyloxazole-5-carbonyl)-2,6-diazaspiro[3.3]heptan-6-yl]-3-pyridyl]-3,3-dimethyl-isoindolin-1-one]
- EC50 (human CYP11B2): 0.0907 nM
- EC50 (human CYP11B1): 18 nM
